Source: ChEMBL document CHEMBL5725290, “IRE-1α inhibitors” (2017)

Target: Serine/threonine-protein kinase/endoribonuclease IRE1 (Homo sapiens, UniProt O75460)
Assay: IRE-1alpha Assay: A fusion protein comprising glutathione S transferase (GST) and human IRE-1α (GST-IRE-1α) obtained from a 500 ml baculovirus-infected insect cell culture can be used to measure IRE-1α activity in vitro. Five μl of a reaction mixture comprising 1× reaction buffer (5× reaction buffer is 100 mM Hepes pH 7.5, 250 mM KOAc, 2.5 mM MgCl2), 3 mM DTT, and 0.4% polyethylene glycol water is added to each well of 384 well plates. Twenty-five nanoliters of a 1 mM test compound solution are added to test wells. Three μl of a 128 ng/ml IRE-1α preparation are added to each test well and to positive control wells (final concentration 5.82 ng/well). Negative control wells contain only reaction mixture and test compound. After spinning the plates at 1200 rpm for 30 seconds, 3 μl of an IRE-1α human mini-XBP-1 mRNA stem-loop substrate 5'-[…]-3' (SEQ ID NO:1), labeled with the fluorescent dye Cy5 at the 5' end and Black Hole Quencher 2 (BH2) at the 3' end, are added to each well of a control plate. The plates are again spun at 1200 rpm for 30 seconds. Final concentrations for the assay are: 63 nM IRE-1α substrate, 5.82 ng IRE-1α protein, and 2.5 μM test compound. The plates are covered with lids and incubated for one hour at 30° C. The plates are then transferred to an ACQUEST™ microplate reader. Data is analyzed using data analysis software, and the percent activity of IRE-1α is calculated.

Chain of Serine/threonine-protein kinase/endoribonuclease IRE1 (O75460 whole entry, the tested form may be a part): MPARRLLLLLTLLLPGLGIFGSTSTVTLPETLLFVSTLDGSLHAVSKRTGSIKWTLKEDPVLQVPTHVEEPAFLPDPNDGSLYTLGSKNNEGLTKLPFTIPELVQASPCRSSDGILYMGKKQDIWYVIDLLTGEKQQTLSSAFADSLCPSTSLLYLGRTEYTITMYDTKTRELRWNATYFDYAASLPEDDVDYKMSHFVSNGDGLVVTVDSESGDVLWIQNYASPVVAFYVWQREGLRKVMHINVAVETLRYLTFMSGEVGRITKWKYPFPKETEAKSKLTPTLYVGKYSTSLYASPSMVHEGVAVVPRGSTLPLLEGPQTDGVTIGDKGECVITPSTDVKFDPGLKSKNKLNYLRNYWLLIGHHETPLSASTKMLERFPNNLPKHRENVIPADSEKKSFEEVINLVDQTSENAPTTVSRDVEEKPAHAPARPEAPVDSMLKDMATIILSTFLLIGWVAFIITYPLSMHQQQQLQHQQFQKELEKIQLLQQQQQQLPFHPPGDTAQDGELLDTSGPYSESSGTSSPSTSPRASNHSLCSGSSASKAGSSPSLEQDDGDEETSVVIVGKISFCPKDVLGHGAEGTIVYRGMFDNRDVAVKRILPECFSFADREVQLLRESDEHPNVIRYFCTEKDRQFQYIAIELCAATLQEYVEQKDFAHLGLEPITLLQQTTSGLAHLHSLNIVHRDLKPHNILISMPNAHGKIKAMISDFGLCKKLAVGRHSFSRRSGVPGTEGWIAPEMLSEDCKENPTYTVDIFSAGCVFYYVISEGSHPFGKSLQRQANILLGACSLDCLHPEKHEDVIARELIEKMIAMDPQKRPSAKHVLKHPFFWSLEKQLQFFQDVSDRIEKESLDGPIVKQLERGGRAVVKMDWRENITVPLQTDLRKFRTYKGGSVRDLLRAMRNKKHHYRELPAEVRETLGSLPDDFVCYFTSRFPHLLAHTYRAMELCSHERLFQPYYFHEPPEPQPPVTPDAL

Cc1c(Br)c(=O)oc2c(C=O)c(O)ccc12
EC50: < 10 µM

O=Cc1c(O)ccc2cc(-c3ccc(Br)cc3)c(=O)oc12
EC50: > 10 µM

Cc1c(-c2ccc(C(=O)N3CCN(C)CC3)cc2)c(=O)oc2c(C=O)c(O)ccc12
EC50: < 10 µM

CCN(CC)CCc1c(C)c2ccc(O)c(C=O)c2oc1=O
EC50: > 10 µM

COc1cc2c(C)c(Br)c(=O)oc2c(C=O)c1O
EC50: < 10 µM

Cc1c(Br)c(=O)oc2c(C=O)c(O)c(F)cc12
EC50: < 10 µM

Cc1c(-c2cccc(C(=O)N3CCOCC3)c2)c(=O)oc2c(C=O)c(O)ccc12
EC50: < 10 µM

Cc1c(Cc2ccccc2)c(=O)oc2c(C=O)c(O)c(O)cc12
EC50: > 10 µM

Cc1c(-c2ccc(C(=O)N3CCCC3)cc2)c(=O)oc2c(C=O)c(O)ccc12
EC50: < 10 µM

Cc1c(-c2ccc(C(=O)N3CCC(C)CC3)cc2)c(=O)oc2c(C=O)c(O)ccc12
EC50: < 10 µM

Cc1c(-c2cccc(C(=O)N3CCCC3)c2)c(=O)oc2c(C=O)c(O)ccc12
EC50: > 10 µM

Cc1cc(=O)oc2c(C=O)c(O)c(F)cc12
EC50: < 10 µM

Cc1c(-c2ccc(N3CCN(C)CC3)cc2)c(=O)oc2c(C=O)c(O)c(F)cc12
EC50: < 10 µM

COc1cc2c(C)c(-c3ccc(C(=O)N4CCOCC4)cc3)c(=O)oc2c(C=O)c1O
EC50: < 10 µM

Cc1nc(N2CCc3c(ccc(O)c3C=O)C2)sc1C(=O)N1CCOCC1
EC50: > 10 µM

O=Cc1c(O)ccc2nc(-c3cccc(C(=O)N4CCOCC4)c3)ccc12
EC50: < 10 µM

CC1CCN(C(=O)c2ccc(-c3ccc4c(C=O)c(O)ccc4n3)cc2)CC1
EC50: > 10 µM

O=Cc1c(O)ccc2nc(-c3ccc(C(=O)N4CCCC4)cc3)ccc12
EC50: < 10 µM

O=Cc1c(O)ccc2nc(N3CCC(NC(=O)CN4CCOCC4)C3)ccc12 (stereo not given)
EC50: < 10 µM

CC(=O)NC1CCN(c2ccc3c(C=O)c(O)ccc3n2)C1 (stereo not given)
EC50: < 10 µM

CN1CCN(C2CCN(c3nc4ccc(O)c(C=O)c4s3)C2)CC1 (stereo not given)
EC50: > 10 µM

CC(C)N1CCN(c2nc3ccc(O)c(C=O)c3s2)CC1
EC50: > 10 µM

CN1CCN(C(=O)c2ccc(-c3nc4ccc(O)c(C=O)c4s3)s2)CC1
EC50: > 10 µM

CC1CCN(C(=O)c2ccc(-c3nc4ccc(O)c(C=O)c4s3)cc2)CC1
EC50: > 10 µM

O=Cc1c(O)ccc2nc(-c3ccc(C(=O)O)cc3)[nH]c12
EC50: > 10 µM

COC(=O)c1ccc(-c2nc3ccc(O)c(C=O)c3[nH]2)cc1
EC50: > 10 µM

O=Cc1c(O)ccc2nc(-c3ccc(C(=O)NCCN4CCOCC4)cc3)[nH]c12
EC50: > 10 µM

O=Cc1c(O)ccc2nc(-c3ccc(C(=O)N4CCOCC4)cc3)[nH]c12
EC50: > 10 µM

CN1CCN(C(=O)c2ccc(-c3nc4ccc(O)c(C=O)c4[nH]3)cc2)CC1
EC50: > 10 µM

Cc1c(CCC(=O)N2CCOCC2)c(=O)oc2c(C=O)c(O)ccc12
EC50: < 10 µM
